Measured values published in US5466691A, “Thiophene compound” (Yoshitomi Pharmaceutical Industries, Ltd., priority 1991, dated 1995).
pKi: −log10 of the molar value. Like-named read-outs stand apart in the source and are kept apart here.

How the values were obtained:
[1] = molecular target: T1, serotonin 2 (5-HT2) receptor (Rattus norvegicus, UniProt P14842); assay: Affinity for serotonin 2 receptor ([3H]ketanserin binding, crude synaptosome fraction of hippocampus); set-up: species or system Wistar rat; conditions: tritiated ketanserin 0.2 nM, pH 7.7, 37° C., 20 minutes, read-out: binding 5-HT2, inhibition constant (Ki value)
T1 construct: A crude synaptosome fraction was separated from hippocampus; from tissue; host or cells: hippocampus of Wistar rat, crude synaptosome fraction
T1 sequence (P14842 whole entry): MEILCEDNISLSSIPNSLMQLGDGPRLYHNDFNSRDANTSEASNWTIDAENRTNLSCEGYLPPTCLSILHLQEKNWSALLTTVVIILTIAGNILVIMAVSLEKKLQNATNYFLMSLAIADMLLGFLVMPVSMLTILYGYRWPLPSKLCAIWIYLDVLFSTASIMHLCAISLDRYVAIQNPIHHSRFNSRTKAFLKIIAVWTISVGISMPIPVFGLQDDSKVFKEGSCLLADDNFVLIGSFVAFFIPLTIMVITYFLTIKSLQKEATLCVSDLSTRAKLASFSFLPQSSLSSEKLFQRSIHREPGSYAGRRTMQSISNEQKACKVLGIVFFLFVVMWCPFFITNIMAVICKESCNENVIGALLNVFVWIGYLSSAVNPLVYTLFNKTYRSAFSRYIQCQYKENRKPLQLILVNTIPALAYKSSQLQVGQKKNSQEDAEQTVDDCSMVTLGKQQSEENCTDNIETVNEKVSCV
Procedure: Experiment Example 3: Affinity for serotonin 2 receptor
A specific binding of serotonin 2 (5-HT2) receptor was tested according to the method described in Mol. Pharmacol. 21, 301 (1981).
A crude synaptosome fraction was separated from hippocampus of 9-10 weeks old Wistar rat, and suspended in 50 mM Tris-HCl buffer (pH 7.7) for use in the test. The test compound at several concentrations and tritiated ketanserin (final concentration 0.2 nM) were added to the synaptosome suspension, and each mixture was incubated at 37° C. for 20 minutes. After the incubation, the mixture was filtered with suction through a Whatman GF/B glass filter. The filter was washed with 50 mM Tris-HCl buffer (plt 7.7), and the radioactivity of the filter was measured by a liquid scintillation counter. Non-specific binding was determined in the presence of 10^-5 M mianserin. The concentration necessary for 50% inhibition (IC50) was determined on a graph, and inhibition constant (Ki value) was calculated.

[2] = molecular target: T2, serotonin 1A (5-HT1A) receptor (Rattus norvegicus, UniProt P19327); assay: Affinity for serotonin 1A receptor ([3H]8-OH-DPAT binding, crude synaptosome fraction of hippocampus); conditions: tritiated 8-OH-DPAT 0.2 nM, pH 7.4, 37° C., 12 minutes, read-out: binding 5-HT1A, inhibition constant (Ki value)
T2 construct: A crude synaptosome fraction was separated from hippocampus; from tissue; host or cells: hippocampus of Wistar rat, crude synaptosome fraction
T2 sequence (P19327 1-422): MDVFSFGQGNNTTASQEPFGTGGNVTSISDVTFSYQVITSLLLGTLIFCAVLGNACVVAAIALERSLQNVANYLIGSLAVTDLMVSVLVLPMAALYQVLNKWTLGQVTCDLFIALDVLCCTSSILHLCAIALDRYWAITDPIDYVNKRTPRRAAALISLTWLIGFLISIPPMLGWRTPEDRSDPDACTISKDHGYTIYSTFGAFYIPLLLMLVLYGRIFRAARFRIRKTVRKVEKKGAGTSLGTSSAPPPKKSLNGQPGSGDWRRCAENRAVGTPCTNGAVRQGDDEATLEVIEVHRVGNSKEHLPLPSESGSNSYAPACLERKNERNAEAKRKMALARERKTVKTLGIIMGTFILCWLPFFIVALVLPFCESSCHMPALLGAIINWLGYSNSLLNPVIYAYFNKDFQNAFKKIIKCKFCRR
Procedure: Experiment Example 2: Affinity for serotonin 1A receptor
A specific binding of serotonin 1A (5-HT1A) receptor was tested according to the method described in J. Neurochem. 44, 1685 (1985).
A crude synaptosome fraction was separated from hippocampus of 9-10 weeks old Nistar rat, and suspended in 50 mM Tris-HCl buffer (pH 7.4) containing 1 mM manganese chloride for use in the test. The test compound at several concentrations and tritiated 8-hydroxy-2-dipropylaminotctralin (8-OH-DPAT, final concentration 0.2 nM) were added to the synaptosome suspension, and each mixture was reacted at 37° C. for 12 minutes. After the reaction, the reaction mixture was filtered with suction through a Whatman GF/B glass filter. The filter was washed with 50 mM Tris-HCl buffer (pH 7.7), and the radioactivity of the filter was measured by a liquid scintillation counter. Non-specific binding was determined in the presence of 10^-5 M serotonin (5HT). The concentration necessary for 50% inhibition (IC50) was determined on a graph, and inhibition constant (Ki value) was calculated.

[3] = test system: apomorphine; assay: Anti-apomorphine action (mouse); assay type: in vivo; conditions: 1 h before apomorphine, read-out: anti-apomorphine effect ED50
Procedure: The test compound was orally administered to the mice, and 60 minutes later, 0.5 mg/kg of apomorphine hydrochloride was subcutaneously administered. The movement for 20 minutes from immediately after the administration was measured using Balimex (Columbus, USA).

[4] = molecular target: T3, dopamine 2 (D2) receptor (Rattus norvegicus, UniProt P61169); assay: Affinity for dopamine 2 receptor ([3H]spiperone binding, synaptosome fraction of corpus striatum); set-up: species or system Wistar rat; conditions: tritiated spiperone 0.2 nM, 37° C., 20 minutes, read-out: binding D2, inhibition constant (Ki value)
T3 construct: A synaptosome fraction was separated from corpus striatum; from tissue; host or cells: corpus striatum of Wistar rat, synaptosome fraction
T3 sequence (P61169 whole entry): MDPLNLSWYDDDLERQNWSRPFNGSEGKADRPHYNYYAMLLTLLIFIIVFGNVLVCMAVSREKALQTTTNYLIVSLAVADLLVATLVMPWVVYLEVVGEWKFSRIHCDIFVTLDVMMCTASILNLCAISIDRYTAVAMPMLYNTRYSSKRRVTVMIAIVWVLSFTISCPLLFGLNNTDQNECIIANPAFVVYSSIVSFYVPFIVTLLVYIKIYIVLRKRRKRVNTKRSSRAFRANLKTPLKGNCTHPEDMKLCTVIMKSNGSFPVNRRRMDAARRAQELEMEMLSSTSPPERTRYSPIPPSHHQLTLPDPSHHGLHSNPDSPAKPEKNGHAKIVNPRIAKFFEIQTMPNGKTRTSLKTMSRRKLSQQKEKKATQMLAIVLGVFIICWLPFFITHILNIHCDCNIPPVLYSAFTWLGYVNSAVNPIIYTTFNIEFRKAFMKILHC
Procedure: Experiment Example 1: Affinity for dopamine 2 receptor
A specific binding of dopamine 2 (D2) receptor was tested according to the method described in Eur. J. Pharmacol. 46, 377 (1977).
A synaptosome fraction was separated from corpus striatum of 9-10 weeks old Wistar rat, and suspended in 50 mM Tris-HCl buffer (pH 7.1) containing 120 mM sodium chloride, 5 mM potassium chloride, 2 mM calcium chloride, 1 mM magnesium chloride, 10 μM pargyline and 0.1% ascorbic acid for use in the test.
The test compound at several concentrations and tritiated spiperone (final concentration 0.2 nM) were added to the synaptosome suspension, and each mixture was reacted at 37° C. for 20 minutes. After the reaction, the reaction mixture was filtered with suction through a Whatman GF/B glass filter. The filter was washed with 50 mM Tris-HCl buffer (pH 7.7), and the radioactivity of the filter was measured by a liquid scintillation counter. Non-specific binding was determined in the presence of 10^-4 M(±)-sulpiride. The concentration necessary for 50% inhibition (IC50) was determined on a graph, and inhibition constant (Ki value) was calculated.

[5] = test system: ddY mice; assay: Acute toxicity; assay type: in vivo; conditions: 5 days

| SMILES | pKi [1] | pKi [2] | ED50 ([3]; po) | pKi [4] | death ([5]; 100 mg/kg intraperitoneally, 5 male ddY mice) | death ([5]; 300 mg/kg orally) | ED50 ([3]; male dd mice, oral, 60 minutes before 0.5 mg/kg s.c. apomorphine hydrochloride, movement for 20 minutes) |
| --- | --- | --- | --- | --- | --- | --- | --- |
| NCc1ccc(CCCCN2CCC(c3noc4cc(F)ccc34)CC2)s1 [Example 165, 3-(1-(4-(5-aminomethyl-2-thienyl)butyl)piperidin-4-yl)-6-fluoro-1,2-benzisoxazole] | 8.89 | 8.77 | 0.24 mg/kg | 9.16 |  |  |  |
| CC(=O)NCc1ccc(C(=O)CCCN2CCC(c3noc4cc(F)ccc34)CC2)s1 [Example 95, 3-(1-(4-(5-acetylaminomethyl-2-thienyl)-4-oxobutyl)piperidin-4-yl)-6-fluoro-1,2-benzisoxazole] | 10.23 | 6.85 | 2.6 mg/kg | 8.60 |  |  |  |
| CC(=O)NCc1ccc(CCCCN2CCC(c3noc4cc(F)ccc34)CC2)s1 [Example 108, 3-(1-(4-(5-acetylaminomethyl-2-thienyl)butyl)piperidin-4-yl) -6-fluoro-1,2-benzisoxazole] | 8.68 | 7.25 | 0.41 mg/kg | 8.70 |  |  |  |
| CC(=O)NCCc1sc(CCN2CCC(c3noc4cc(F)ccc34)CC2)cc1Br [Example 159, 3-(1-(2-(5-(2-acetylaminoethyl)-4-bromo-2-thienyl)ethyl)-piperidin-4-yl) -6-fluoro-1,2-benzisoxazole] | 10.33 | 7.92 | 0.53 mg/kg | 9.30 |  |  |  |
| CC(=O)NCc1cc(CCN2CCC(c3noc4cc(F)ccc34)CC2)c(C)s1 [Example 155, 3-(1-(2-(5-acetylaminomethyl-2-methyl-3-thienyl)ethyl)-piperidin-4-yl)-6-fluoro-1,2-benzisoxazole] | 9.43 | < 7.00 | 1.2 mg/kg | 8.85 |  |  |  |
| CC(=O)c1ccc(SCCCN2CCC(c3noc4cc(F)ccc34)CC2)s1 [Example 36, 3-(1-(3-((5-acctyl-2-thienyl)thio)propyl)piperidin-4-yl)-6-fluoro-1,2-benzisoxazole] | 8.89 | 9.12 | 3.4 mg/kg | 9.21 |  |  |  |
| CC(=O)c1ccc(SCCCN2CCN(c3cccc(C)c3C)CC2)s1 [Example 4, 1(3-((5-acetyl-2-thienyl)thio)propyl)-4-(2,3-dimethylphenyl)piperazine] |  |  |  |  | No death was observed | no death was observed |  |
| CC(=O)NCc1ccc(SCCCN2CCC(c3noc4cc(F)ccc34)CC2)s1 [Example 93, 3-(1-(3-((5-acetylaminomethyl-2-thienyl)thio)propyl)-piperidin-4-yl)-6-fluoro-1,2-benzisoxazole] | 9.10 | 7.59 | 2.9 mg/kg | 9.10 |  |  |  |
| CC(=O)NCCc1ccc(CCN2CCC(c3noc4cc(F)ccc34)CC2)s1 [Example 158, 3-(1-(2-(5-(2-acetylaminoethyl)-2-thienyl)ethyl)piperidin-4-yl) -6-fluoro-1,2-benzisoxazole] | 9.89 | 7.80 | 0.14 mg/kg | 9.03 |  |  |  |
| CC(=O)NCc1sc(CCN2CCC(c3noc4cc(F)ccc34)CC2)cc1C [Example 151, 3-(1-(2-(5-acetylaminomethyl-4-methyl-2-thienyl)ethyl)-piperadin-4-yl)-6-fluoro-1,2-benzisoxazole] | 10.00 | 7.82 |  | 8.42 |  |  | 0.76 mg/kg |
| CC(=O)c1ccc(SCCCN2CCN(c3nsc4ccccc34)CC2)s1 [Example 21, 3-(4-(3-((5-acctyl-2-thicnyl)thio)propyl)-l-piperadinyl)1,2-benzisothiazole] | 9.23 | 9.92 | 35 mg/kg | 8.89 |  |  |  |
| CC(=O)NCc1ccc(CCN2CCC(c3noc4cc(F)ccc34)CC2)s1 [Example 119, 3-(1-(2-(5-acetylaminomethyl-2-thicnyl)ethyl)piperidin-4-yl)-6-fluoro-1,2-benzisoxazole] | 9.19 | 7.85 | 0.16 mg/kg | 8.42 |  |  |  |
| CC(=O)Nc1ccc(SCCCN2CCC(c3noc4cc(F)ccc34)CC2)s1 [Example 40, 3-(1-(3-((5-acetylamino-2-thienyl)thio)propyl)piperidin-4-yl) -6-fluoro-1,2-benzisoxazole] | 9.35 | 9.46 | 1 mg/kg | 9.15 |  |  |  |
